According to PMC12858467, “In vitro toxicokinetics and metabolic profiling of methoxycathinones and methylthiocathinones using human liver systems and hyphenated mass spectrometry” (Archives of Toxicology, 2025):

Key:
HepaRG cells = assay: Incubations using HepaRG cells; conditions: 25 µM parent, 24 h
Protocol: Cell incubations were performed in a monolayer assay (Kroesen et al. [2025]) and in accordance with the manufacturer’s instructions.
All incubations were performed in triplicate, with each well containing 0.5% (v/v) DMSO. Following incubation, 50 µL of the medium supernatant was transferred to a new reaction tube and precipitated with 30 µL of acetonitrile cooled to −20 °C, containing 2.5 µM trimipramine-d3 as an internal standard. […] The mixture was vortexed and centrifuged for 2 min at 18,407 × g. A volume of 70 µL of the supernatant was transferred into an autosampler vial and 5 µL was injected onto the LC–HRMS/MS system.
HepaRG cells were thawed and resuspended in 13.5 mL (~ 740,000 cells/mL) thaw
and seed medium at 37 °C. Thaw and seed medium consisted of Williams E medium,
100 U/mL penicillin, 100 µg/mL streptomycin, GlutaMAX, and HPRG670 supplement.
Cells were handled under sterile conditions using a laminar flow bench class II (Thermo
Scientific, TF, Schwerte, Germany). Aliquots of 100 µL cell suspension were seeded
on collagen-coated 96-well plates (~ 74,000 cells/well). Evaporation was minimized by
filling the outer wells with 100 µL thaw and seed medium. Cells were preincubated for
4 h in an incubator (Binder, Tuttlingen, Germany) at 37 °C, 95 % air humidity, and 5 %
CO2. After preincubation, 50 µL of the thaw and seed medium was replaced with 50 µL
solution of each cathinone (25 µM) in thaw and seed medium, followed by an
incubation for 24 h at 37 °C, 95 % air humidity, and 5 % CO2 atmosphere.
A Thermo Fisher ( TF, Dreieich, Germany) Dionex UltiMate 3000 RS pump consisting
of a degasser, a quaternary pump, and an autosampler, coupled to a TF Q Exactive
Plus system equipped with a heated electrospray ionization (HESI)-II source were
used. A mass calibration was done according to the manufacturer's recommendations
using external mass calibration prior to analysis. Gradient elution was performed on a
TF Accucore PhenylHexyl column (100 mm x 2.1 mm, 2.6 μm) with a 2 mM aqueous
ammonium formate solution containing 0.1 % (v/v) formic acid (pH 3, eluent A) and 2
mM ammonium formate solution in acetonitrile/methanol (50:50, v/v) containing 0.1 %
(v/v) formic acid, and 1 % (v/v) water (eluent B). The gradient was stepped as follows:
hold 99 % A. Initial flow rate from 0–9.5 min was 500 μL/min and final flow rate was
800 μL/min from 9.5–11.5 min. Mass spectrometry was performed using full scan data
and a subsequent data-dependent acquisition (DDA) with priority to mass-to-charge
ratios (m/z) of parent compounds and their expected metabolites. The inclusion list
contained m/z values of likely formed metabolites such as O- or S-desmethyl, hydroxy,
and oxo reduction metabolites (phase I) as well as sulfates, glucuronides (phase II),
and combinations thereof.
TF Xcalibur Qual Browser software […]

[1] = system: pooled human liver S9 fraction (pHLS9); assay: Incubations using pooled human liver S9 fraction; conditions: 25 µM parent, 60 and 360 min
Protocol: In short, 25 μg/mL alamethicin (UGT reaction mix B), pHLS9 (2 mg microsomal protein/mL), 2.5 mM isocitrate, 0.8 U/mL isocitrate dehydrogenase, 100 U/mL superoxide dismutase, 0.6 mM NADP^+, and 2.5 mM Mg^2+ were preincubated for 10 min at 37 °C. Then, 2.5 mM UDP-glucuronic acid (UGT reaction mix A), 40 µM PAPS, 1.2 mM SAM, 1 mM DTT, and 10 mM GSH were added. The reaction was started by adding the substrate (25 µM each, final), resulting in a final incubation volume of 150 µL. MDMA or quetiapine (25 µM and 250 µM final concentrations) was incubated as positive controls. […] Incubations were performed in triplicate and organic solvent in the incubation mixture was below 1% (Chauret et al. [1998]). After an incubation time of 60 and 360 min, aliquots (50 µL) were transferred to a new reaction tube. The reaction was stopped with 30 µL acetonitrile (−20 °C) containing 2.5 µM trimipramine-d3 as an internal standard. Samples were vortexed, stored at −20 °C for 30 min, and centrifuged for 2 min at 18,407 × g. 70 µL of the supernatant were transferred to autosampler vials and 5 µL was injected onto the LC–HRMS/MS system.

CYP2D6 = target: T1, CYP2D6 (Homo sapiens, UniProt P10635); assay: Monooxygenases activity screening, CYP2D6; type: in vitro ADME; parameters: key to one-step metabolite detected in CYP2D6 incubation: +, detected; -, not detected; conditions: substrate 4MeS-NE-BP 25 µM, 30 min, 37 °C; Table S3.4
T1 construct: purchased Discovery Life Sciences (Huntsville, LA, USA); host or cells: baculovirus-infected insect cells (microsomes, Supersomes)
Protocol: (§1) For incubations with CYP2A6 or CYP2C9, phosphate buffer was replaced with 90 mM Tris buffer, according to the manufacturer’s guideline. […] All incubations were done in duplicate and concentrations were fixed. Verapamil (25 µM) was incubated as a positive control.

CYP2C8 = target: T2, CYP2C8 (Homo sapiens, UniProt P10632); assay: Monooxygenases activity screening, CYP2C8; type: in vitro ADME; parameters: key: +, detected; -, not detected; conditions: substrate 4MeS-NE-BP 25 µM, 30 min, 37 °C; Table S3.4
T2 construct: purchased Discovery Life Sciences (Huntsville, LA, USA); host or cells: baculovirus-infected insect cells (microsomes, Supersomes)
T2 sequence (P10632 1-490): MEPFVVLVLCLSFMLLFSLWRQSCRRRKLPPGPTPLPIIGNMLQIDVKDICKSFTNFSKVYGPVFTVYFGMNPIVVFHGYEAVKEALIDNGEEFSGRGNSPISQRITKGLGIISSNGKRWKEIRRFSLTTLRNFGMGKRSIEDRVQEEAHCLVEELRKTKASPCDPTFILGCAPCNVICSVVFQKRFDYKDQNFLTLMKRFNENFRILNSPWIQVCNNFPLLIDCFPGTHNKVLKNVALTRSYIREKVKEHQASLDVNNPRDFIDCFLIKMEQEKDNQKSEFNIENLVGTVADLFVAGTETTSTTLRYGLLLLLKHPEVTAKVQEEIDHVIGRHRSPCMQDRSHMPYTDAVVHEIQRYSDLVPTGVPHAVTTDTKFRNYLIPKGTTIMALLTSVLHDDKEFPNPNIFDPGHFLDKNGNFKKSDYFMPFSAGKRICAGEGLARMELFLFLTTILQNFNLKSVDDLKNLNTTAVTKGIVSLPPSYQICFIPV
Protocol: as §1

CYP2A6 = target: T3, CYP2A6 (Homo sapiens, UniProt P11509); assay: Monooxygenases activity screening, CYP2A6; type: in vitro ADME; parameters: key: +, detected; -, not detected; conditions: substrate 4MeS-NE-BP 25 µM, 30 min, 37 °C; Table S3.4
T3 construct: purchased Discovery Life Sciences (Huntsville, LA, USA); host or cells: baculovirus-infected insect cells (microsomes, Supersomes)
T3 sequence (P11509 1-494): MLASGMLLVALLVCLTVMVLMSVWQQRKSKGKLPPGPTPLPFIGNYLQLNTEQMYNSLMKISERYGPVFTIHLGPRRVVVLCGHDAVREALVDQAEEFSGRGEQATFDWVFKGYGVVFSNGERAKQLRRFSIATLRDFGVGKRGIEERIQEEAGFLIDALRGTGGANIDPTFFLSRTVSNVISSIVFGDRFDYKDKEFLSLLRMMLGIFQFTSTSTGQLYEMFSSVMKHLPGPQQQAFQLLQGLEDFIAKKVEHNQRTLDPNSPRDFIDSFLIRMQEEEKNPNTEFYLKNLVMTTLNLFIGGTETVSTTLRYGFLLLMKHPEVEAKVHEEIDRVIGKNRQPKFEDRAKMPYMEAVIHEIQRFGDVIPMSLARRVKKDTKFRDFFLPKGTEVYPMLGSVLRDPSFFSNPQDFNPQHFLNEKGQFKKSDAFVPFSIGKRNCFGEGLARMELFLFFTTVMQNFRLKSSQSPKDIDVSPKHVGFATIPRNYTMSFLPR
Protocol: as §1

CYP2E1 = target: T4, CYP2E1 (Homo sapiens, UniProt P05181); assay: Monooxygenases activity screening, CYP2E1; type: in vitro ADME; parameters: key: +, detected; -, not detected; conditions: substrate 4MeS-NE-BP 25 µM, 30 min, 37 °C; Table S3.4
T4 construct: purchased Discovery Life Sciences (Huntsville, LA, USA); host or cells: baculovirus-infected insect cells (microsomes, Supersomes)
Protocol: as §1

CYP3A5 = target: T5, CYP3A5 (Homo sapiens, UniProt P20815); assay: Monooxygenases activity screening, CYP3A5; type: in vitro ADME; parameters: key: +, detected; -, not detected; conditions: substrate 4MeS-NE-BP 25 µM, 30 min, 37 °C; Table S3.4
T5 construct: purchased Discovery Life Sciences (Huntsville, LA, USA); host or cells: baculovirus-infected insect cells (microsomes, Supersomes)
Protocol: as §1

CYP3A4 = target: T6, CYP3A4 (Homo sapiens, UniProt P08684); assay: Monooxygenases activity screening, CYP3A4; type: in vitro ADME; parameters: key: +, detected; -, not detected; conditions: substrate 4MeS-NE-BP 25 µM, 30 min, 37 °C; Table S3.4
T6 construct: purchased Discovery Life Sciences (Huntsville, LA, USA); host or cells: baculovirus-infected insect cells (microsomes, Supersomes)
Protocol: as §1

CYP2B6 = target: T7, CYP2B6 (Homo sapiens, UniProt P20813); assay: Monooxygenases activity screening, CYP2B6; type: in vitro ADME; parameters: key: +, detected; -, not detected; conditions: substrate 4MeS-NE-BP 25 µM, 30 min, 37 °C; Table S3.4
T7 construct: purchased Discovery Life Sciences (Huntsville, LA, USA); host or cells: baculovirus-infected insect cells (microsomes, Supersomes)
T7 sequence (P20813 1-491): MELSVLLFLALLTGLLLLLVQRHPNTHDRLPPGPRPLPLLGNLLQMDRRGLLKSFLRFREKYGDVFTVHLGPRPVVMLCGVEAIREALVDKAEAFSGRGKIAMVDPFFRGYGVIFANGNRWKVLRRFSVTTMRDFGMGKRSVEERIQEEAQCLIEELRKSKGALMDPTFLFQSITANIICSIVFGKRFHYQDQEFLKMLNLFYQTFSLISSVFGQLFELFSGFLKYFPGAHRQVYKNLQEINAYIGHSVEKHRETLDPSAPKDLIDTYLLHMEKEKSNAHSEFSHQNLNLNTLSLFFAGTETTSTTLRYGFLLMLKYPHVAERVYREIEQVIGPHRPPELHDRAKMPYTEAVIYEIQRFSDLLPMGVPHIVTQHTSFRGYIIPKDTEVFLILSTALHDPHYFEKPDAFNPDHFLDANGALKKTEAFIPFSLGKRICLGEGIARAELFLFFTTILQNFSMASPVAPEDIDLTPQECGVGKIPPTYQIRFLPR
Protocol: as §1

CYP2C9 = target: T8, CYP2C9 (Homo sapiens, UniProt P11712); assay: Monooxygenases activity screening, CYP2C9; type: in vitro ADME; parameters: key: +, detected; -, not detected; conditions: substrate 4MeS-NE-BP 25 µM, 30 min, 37 °C; Table S3.4
T8 construct: purchased Discovery Life Sciences (Huntsville, LA, USA); host or cells: baculovirus-infected insect cells (microsomes, Supersomes)
Protocol: as §1

[2] = target: T9, flavin-containing monooxygenase 3 (FMO3) (Homo sapiens, UniProt P31513); assay: Monooxygenases activity screening, FMO3; type: in vitro ADME; parameters: key: +, detected; -, not detected; conditions: substrate 4MeS-NE-BP 25 µM, 30 min, 37 °C; Table S3.4
T9 construct: purchased Discovery Life Sciences (Huntsville, LA, USA); host or cells: baculovirus-infected insect cells (microsomes, Supersomes)
T9 sequence (P31513 1-532): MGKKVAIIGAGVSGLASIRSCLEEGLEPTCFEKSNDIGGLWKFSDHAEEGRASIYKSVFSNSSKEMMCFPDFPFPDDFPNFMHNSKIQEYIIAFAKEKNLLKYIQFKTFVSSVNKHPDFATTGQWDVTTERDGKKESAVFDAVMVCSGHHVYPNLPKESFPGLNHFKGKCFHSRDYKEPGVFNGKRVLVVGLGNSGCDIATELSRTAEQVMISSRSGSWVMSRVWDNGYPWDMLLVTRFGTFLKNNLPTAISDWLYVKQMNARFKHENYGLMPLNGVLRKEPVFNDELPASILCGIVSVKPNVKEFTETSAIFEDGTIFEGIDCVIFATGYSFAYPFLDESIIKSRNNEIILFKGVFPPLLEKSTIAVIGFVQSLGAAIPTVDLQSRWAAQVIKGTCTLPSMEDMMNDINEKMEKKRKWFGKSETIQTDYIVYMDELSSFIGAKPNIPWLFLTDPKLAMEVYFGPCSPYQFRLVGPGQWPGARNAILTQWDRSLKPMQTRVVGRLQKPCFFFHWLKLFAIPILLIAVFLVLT
Protocol: as §1

CYP2C19 = target: T10, CYP2C19 (Homo sapiens, UniProt P33261); assay: Monooxygenases activity screening, CYP2C19; type: in vitro ADME; parameters: key: +, detected; -, not detected; conditions: substrate 4MeS-NE-BP 25 µM, 30 min, 37 °C; Table S3.4
T10 construct: purchased Discovery Life Sciences (Huntsville, LA, USA); host or cells: baculovirus-infected insect cells (microsomes, Supersomes)
Protocol: as §1

CYP1A2 = target: T11, CYP1A2 (Homo sapiens, UniProt P05177); assay: Monooxygenases activity screening, CYP1A2; type: in vitro ADME; parameters: key: +, detected; -, not detected; conditions: substrate 4MeS-NE-BP 25 µM, 30 min, 37 °C; Table S3.4
T11 construct: purchased Discovery Life Sciences (Huntsville, LA, USA); host or cells: baculovirus-infected insect cells (microsomes, Supersomes)
T11 sequence (P05177 1-516): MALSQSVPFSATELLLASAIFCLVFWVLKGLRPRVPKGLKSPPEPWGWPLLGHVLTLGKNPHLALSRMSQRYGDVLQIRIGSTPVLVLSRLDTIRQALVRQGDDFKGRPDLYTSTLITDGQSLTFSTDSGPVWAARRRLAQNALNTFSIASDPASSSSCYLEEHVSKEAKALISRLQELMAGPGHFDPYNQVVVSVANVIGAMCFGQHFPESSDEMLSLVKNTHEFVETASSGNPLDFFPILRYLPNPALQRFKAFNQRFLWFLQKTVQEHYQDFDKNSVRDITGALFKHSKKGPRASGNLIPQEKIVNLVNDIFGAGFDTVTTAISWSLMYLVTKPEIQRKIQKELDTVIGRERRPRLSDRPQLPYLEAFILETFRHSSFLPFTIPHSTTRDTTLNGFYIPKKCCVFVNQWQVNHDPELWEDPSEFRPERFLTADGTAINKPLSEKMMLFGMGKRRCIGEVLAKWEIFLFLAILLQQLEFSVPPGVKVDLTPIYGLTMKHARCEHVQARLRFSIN
Protocol: as §1

T6 sequence (P08684 whole entry): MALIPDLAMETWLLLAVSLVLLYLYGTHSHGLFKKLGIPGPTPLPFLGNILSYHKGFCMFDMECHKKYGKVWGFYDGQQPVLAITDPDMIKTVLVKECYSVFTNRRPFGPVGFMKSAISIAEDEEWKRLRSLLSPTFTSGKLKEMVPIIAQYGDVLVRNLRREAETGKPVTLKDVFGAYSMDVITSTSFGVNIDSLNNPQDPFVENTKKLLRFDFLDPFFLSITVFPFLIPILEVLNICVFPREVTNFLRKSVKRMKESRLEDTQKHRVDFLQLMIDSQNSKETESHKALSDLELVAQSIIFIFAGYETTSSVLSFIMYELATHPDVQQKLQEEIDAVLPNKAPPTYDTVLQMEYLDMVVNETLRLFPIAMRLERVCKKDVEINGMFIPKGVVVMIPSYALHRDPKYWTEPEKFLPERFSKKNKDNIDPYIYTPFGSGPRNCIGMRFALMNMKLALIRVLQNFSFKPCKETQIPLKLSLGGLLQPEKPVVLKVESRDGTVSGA
T4 sequence (P05181 whole entry): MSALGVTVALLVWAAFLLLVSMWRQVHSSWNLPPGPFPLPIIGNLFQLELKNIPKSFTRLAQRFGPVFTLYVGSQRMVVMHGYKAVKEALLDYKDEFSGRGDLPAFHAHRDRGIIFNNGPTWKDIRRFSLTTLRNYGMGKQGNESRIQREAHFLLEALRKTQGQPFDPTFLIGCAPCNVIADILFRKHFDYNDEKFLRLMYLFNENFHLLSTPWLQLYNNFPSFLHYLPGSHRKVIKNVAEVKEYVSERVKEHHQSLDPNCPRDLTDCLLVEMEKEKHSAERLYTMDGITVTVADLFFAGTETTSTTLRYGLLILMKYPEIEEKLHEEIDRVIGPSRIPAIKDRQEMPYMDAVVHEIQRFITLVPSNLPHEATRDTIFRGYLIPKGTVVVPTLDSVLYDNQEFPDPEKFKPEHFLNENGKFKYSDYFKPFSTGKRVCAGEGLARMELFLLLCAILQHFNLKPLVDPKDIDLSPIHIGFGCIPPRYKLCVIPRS
T10 sequence (P33261 whole entry): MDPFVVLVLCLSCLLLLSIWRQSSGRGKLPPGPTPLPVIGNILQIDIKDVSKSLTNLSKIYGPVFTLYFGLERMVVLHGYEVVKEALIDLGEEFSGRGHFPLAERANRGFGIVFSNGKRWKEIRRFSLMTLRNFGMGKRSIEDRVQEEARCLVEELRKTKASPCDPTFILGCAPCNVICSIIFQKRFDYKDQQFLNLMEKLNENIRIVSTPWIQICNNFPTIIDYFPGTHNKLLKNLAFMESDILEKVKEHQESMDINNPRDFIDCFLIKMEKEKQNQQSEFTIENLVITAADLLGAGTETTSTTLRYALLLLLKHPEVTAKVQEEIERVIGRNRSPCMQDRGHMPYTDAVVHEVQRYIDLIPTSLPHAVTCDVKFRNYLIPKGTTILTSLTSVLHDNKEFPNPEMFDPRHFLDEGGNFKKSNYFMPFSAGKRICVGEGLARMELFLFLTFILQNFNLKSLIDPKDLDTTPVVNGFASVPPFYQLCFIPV
T5 sequence (P20815 whole entry): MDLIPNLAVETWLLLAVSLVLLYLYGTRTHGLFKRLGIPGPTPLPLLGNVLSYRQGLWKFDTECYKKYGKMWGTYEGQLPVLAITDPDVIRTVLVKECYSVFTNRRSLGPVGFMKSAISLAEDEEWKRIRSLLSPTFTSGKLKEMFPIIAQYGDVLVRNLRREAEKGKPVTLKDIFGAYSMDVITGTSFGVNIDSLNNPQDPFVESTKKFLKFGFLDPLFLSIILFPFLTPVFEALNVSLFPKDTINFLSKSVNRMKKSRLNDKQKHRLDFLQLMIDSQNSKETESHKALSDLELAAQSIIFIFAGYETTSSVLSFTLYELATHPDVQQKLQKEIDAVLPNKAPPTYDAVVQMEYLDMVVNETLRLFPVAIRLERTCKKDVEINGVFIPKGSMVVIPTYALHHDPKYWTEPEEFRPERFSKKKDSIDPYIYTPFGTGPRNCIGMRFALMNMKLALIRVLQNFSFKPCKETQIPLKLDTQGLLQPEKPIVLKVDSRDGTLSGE
T1 sequence (P10635 whole entry): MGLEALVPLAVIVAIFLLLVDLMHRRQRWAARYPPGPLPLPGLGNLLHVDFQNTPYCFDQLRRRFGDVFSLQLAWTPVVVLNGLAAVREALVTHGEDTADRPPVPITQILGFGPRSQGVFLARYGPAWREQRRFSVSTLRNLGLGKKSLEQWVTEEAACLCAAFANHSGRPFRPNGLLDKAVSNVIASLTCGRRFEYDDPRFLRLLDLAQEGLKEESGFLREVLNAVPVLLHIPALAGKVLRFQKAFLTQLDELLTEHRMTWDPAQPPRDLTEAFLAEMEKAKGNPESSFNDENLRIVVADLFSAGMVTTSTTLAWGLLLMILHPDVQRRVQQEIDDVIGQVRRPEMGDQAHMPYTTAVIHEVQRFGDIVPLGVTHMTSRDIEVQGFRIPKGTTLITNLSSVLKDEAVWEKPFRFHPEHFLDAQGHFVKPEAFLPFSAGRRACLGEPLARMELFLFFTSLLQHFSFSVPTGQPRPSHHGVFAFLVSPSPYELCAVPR
T8 sequence (P11712 whole entry): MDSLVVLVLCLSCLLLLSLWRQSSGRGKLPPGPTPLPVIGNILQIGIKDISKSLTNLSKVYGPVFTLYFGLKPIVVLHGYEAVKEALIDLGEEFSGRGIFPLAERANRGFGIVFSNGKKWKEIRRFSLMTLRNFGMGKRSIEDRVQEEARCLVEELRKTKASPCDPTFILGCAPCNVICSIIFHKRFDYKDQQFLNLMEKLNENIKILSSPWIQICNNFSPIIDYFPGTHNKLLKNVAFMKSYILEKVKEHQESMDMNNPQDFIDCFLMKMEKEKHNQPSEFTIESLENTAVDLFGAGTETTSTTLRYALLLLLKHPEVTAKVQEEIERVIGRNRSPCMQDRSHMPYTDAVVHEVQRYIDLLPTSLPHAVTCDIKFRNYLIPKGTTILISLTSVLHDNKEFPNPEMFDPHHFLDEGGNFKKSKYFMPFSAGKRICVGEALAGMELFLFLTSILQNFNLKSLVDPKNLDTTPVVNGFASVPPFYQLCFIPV

Compound | metabolite detection in HepaRG incubations (HepaRG cells) | metabolite detection in pHLS9 [1] | one-step metabolite detected in CYP2D6 incubation (CYP2D6) | one-step metabolite detected in CYP2C8 incubation (CYP2C8) | one-step metabolite detected in CYP2A6 incubation (CYP2A6) | one-step metabolite detected in CYP2E1 incubation (CYP2E1) | one-step metabolite detected in CYP3A5 incubation (CYP3A5) | one-step metabolite detected in CYP3A4 incubation (CYP3A4) | one-step metabolite detected in CYP2B6 incubation (CYP2B6) | one-step metabolite detected in CYP2C9 incubation (CYP2C9) | one-step metabolite detected in FMO3 incubation [2] | one-step metabolite detected in CYP2C19 incubation (CYP2C19) | one-step metabolite detected in CYP1A2 incubation (CYP1A2)
CCCC(C(=O)c1ccc(OC2OC(C(=O)O)C(O)C(O)C2O)cc1)N1CCCC1 (stereo not drawn) [MO3.10] | observed in HepaRG incubations | could not be detected |  |  |  |  |  |  |  |  |  |  | 
CCC(C(=O)c1ccc(SC)cc1)N(O)CC (stereo not drawn) [MT1.4] | only detected in HepaRG incubations |  | + | - | - | - | + | + | - | - | + | - | +
CCC(N)C(=O)c1ccc(SC)cc1 (stereo not drawn) [MT2.5] | only detected in HepaRG incubations |  |  |  |  |  |  |  |  |  |  |  | 
